# Measurements as given in ChEMBL document CHEMBL5096145, “Evaluation of imidazo[2,1-b]thiazole-based anticancer agents in one decade (2011-2020): Current status and future prospects” (Bioorg Med Chem, 2021).
# Columns and labels:
# A549 [1] = assay: Induction of cell cycle arrest in human A549 cells assessed as accumulation of cells at G2/M phase at 1 uM by flow cytometric analysis relative to control; assay type: functional
# A549 [2] = assay: Induction of cell cycle arrest in human A549 cells assessed as accumulation of cells at G2/M phase at 2 uM by flow cytometric analysis relative to control; assay type: functional
# A549 [3] = assay: Antiproliferative activity against human A549 cells incubated for 48 hrs by MTT assay; assay type: functional, cell-based; settings: A549, 48 h
# A549 [4] = assay: Induction of apoptosis in human A549 cells at 1 uM measured after 48 hrs by Annexin V-FITC analysis; assay type: functional
# [5] = Inhibition of tubulin polymerisation in human A549; assay type: cell-based
# A549 [6] = assay: Inhibition of tubulin polymerisation in human A549 cells relative to control; assay type: cell-based; settings: dose or concentration not given here
# A549 [7] = assay: Induction of apoptosis in human A549 cells at 2 uM measured after 48 hrs by Annexin V-FITC analysis; assay type: functional
# MDA-MB-231 [8] = assay: Antiproliferative activity human MDA-MB-231 cells; assay type: functional, cell-based
# MCF7 [9] = assay: Antiproliferative activity human MCF7 cells; assay type: functional, cell-based
# A549 [10] = assay: Antiproliferative activity human A549 cells; assay type: functional, cell-based
# A-375 [11] = assay: Cytotoxicity against human A-375 cells by MTT assay; assay type: functional, cell-based
# MDA-MB-231 [12] = assay: Antiproliferative activity against human MDA-MB-231 cells measured after 48 hrs by MTT assay; assay type: functional, cell-based; settings: MDA-MB-231, 48 h
# HCT-116 = assay: Anticancer activity against human HCT-116 cells measured after 48 hrs by MTT assay; assay type: functional, cell-based; settings: HCT-116, 48 h
# A549 [13] = assay: Anticancer activity against human A549 cells incubated for 24 hrs by MTT assay; assay type: functional, cell-based; settings: A549, 24 h
# A549 [14] = assay: Induction of apoptosis in human A549 cells assessed as increase in caspase-3 level at 1 uM measured after 48 hrs by ELISA method relative to control (RVB = 9.1 %); assay type: functional
# Tubulin = assay: Inhibition of tubulin polymerization (unknown origin) by fluorescence based assay; assay type: protein-complex assay, Homo sapiens
# A549 [15] = assay: Induction of apoptosis in human A549 cells assessed as increase in caspase-3 level at 0.5 uM measured after 48 hrs by ELISA method relative to control; assay type: functional
# Renal cancer cell line = assay: Cytotoxicity against human renal cancer cell line assessed as reduction in cell viability by MTT assay relative to control; assay type: functional
# Prostatic carcinoma cell = assay: Cytotoxicity against human prostatic carcinoma cell assessed as reduction in cell viability by MTT assay relative to control; assay type: functional
# [16] = Cytotoxicity against human Colon carcinoma cells assessed as reduction in cell viability by MTT assay relative to control; assay type: functional
# Leukemic tumor cell line = assay: Cytotoxicity against human leukemic tumor cell line assessed as reduction in cell viability by MTT assay relative to control; assay type: functional
# [17] = biological target: Serine/threonine-protein kinase B-raf (Homo sapiens) (UniProt P15056); assay: Inhibition of wildtype BRAF (unknown origin) using MEK1 as substrate in presence of ATP relative to control; settings: concentration not given here
# Chain of Serine/threonine-protein kinase B-raf (Homo sapiens) (P15056 whole entry): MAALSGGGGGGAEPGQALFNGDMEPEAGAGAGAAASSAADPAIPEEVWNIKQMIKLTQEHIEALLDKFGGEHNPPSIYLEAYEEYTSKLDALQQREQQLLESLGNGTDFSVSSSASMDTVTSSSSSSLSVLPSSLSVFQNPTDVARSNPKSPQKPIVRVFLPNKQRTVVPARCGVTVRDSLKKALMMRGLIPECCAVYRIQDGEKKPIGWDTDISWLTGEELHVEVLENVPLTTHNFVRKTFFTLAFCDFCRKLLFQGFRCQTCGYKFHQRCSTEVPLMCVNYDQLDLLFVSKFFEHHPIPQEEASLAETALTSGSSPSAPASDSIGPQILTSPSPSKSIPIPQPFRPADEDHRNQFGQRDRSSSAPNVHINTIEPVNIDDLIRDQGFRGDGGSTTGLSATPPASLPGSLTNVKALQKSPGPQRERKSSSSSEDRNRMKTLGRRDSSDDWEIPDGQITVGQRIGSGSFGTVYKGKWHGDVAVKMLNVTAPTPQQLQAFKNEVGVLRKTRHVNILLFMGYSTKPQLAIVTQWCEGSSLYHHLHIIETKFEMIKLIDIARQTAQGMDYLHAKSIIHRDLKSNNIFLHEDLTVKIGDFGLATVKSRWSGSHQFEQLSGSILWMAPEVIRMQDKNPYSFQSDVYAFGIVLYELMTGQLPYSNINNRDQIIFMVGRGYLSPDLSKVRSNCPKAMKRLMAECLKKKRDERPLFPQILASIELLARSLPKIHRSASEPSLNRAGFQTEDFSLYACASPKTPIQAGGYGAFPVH
# Melanoma tumor cell line = assay: Cytotoxicity against human melanoma tumor cell line assessed as reduction in cell viability by MTT assay relative to control; assay type: functional
# [18] = Cytotoxicity against human L132 cells by MTT assay; assay type: toxicity, cell-based
# Ovarian cancer cell line = assay: Cytotoxicity against human ovarian cancer cell line assessed as reduction in cell viability by MTT assay relative to control; assay type: functional
# [19] = tested on: Serine/threonine-protein kinase B-raf (Homo sapiens), P15056 [V600E]; assay: Inhibition of human BRAF V600E mutant using MEK1 as substrate in presence of ATP relative to control; settings: concentration not given here
# Chain of Serine/threonine-protein kinase B-raf (Homo sapiens), P15056 [V600E] (P15056 whole entry V600E): as the sequence (P15056 whole entry) above, with V600E counted along it
# CNS carcinoma cell = assay: Cytotoxicity against human CNS carcinoma cells assessed as reduction in cell viability by MTT assay relative to control; assay type: functional
# Breast carcinoma cell = assay: Cytotoxicity against human breast cancer cell line assessed as reduction in cell viability by MTT assay relative to control; assay type: functional
# [20] = tested on: Non-small cell lung cancer cell line; assay: Cytotoxicity against human non-small cell lung cancer cell line assessed as reduction in cell viability by MTT assay relative to control; assay type: functional
# [21] = biological target: Serine/threonine-protein kinase B-raf (Homo sapiens, UniProt P15056, V600E); assay: Inhibition of human BRAF V600E mutant using MEK1 as substrate in presence of ATP
# Chain of Serine/threonine-protein kinase B-raf (P15056 2-766 V600E limits assumed): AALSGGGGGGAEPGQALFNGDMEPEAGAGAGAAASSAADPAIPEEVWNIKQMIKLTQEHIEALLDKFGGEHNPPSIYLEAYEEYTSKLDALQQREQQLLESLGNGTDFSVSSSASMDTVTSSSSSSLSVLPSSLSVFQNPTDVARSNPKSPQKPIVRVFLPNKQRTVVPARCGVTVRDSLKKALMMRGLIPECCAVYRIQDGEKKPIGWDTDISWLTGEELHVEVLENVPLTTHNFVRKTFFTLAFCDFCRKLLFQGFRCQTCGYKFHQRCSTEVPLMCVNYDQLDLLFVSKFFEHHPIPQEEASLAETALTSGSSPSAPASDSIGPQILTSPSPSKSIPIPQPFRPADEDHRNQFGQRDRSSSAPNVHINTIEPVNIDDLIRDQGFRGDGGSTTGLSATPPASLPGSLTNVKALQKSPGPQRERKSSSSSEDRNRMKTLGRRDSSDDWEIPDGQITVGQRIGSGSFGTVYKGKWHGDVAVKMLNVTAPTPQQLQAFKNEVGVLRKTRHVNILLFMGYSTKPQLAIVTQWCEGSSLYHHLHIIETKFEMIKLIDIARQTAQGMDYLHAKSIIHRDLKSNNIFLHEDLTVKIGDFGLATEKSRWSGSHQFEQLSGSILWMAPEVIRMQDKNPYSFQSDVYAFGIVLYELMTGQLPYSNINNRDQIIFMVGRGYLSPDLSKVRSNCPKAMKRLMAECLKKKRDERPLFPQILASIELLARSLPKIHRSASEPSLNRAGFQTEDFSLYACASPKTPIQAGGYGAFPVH
# HeLa [22] = assay: Cytotoxicity against human HeLa cells expressing EGFR assessed as reduction in cell viability incubated for 24 hrs by MTT assay; assay type: functional, cell-based
# HUVEC = assay: Cytotoxicity against HUVEC expressing EGFR assessed as reduction in cell viability incubated for 24 hrs by MTT assay; assay type: functional, cell-based; settings: Homo sapiens
# HepG2 [23] = assay: Cytotoxicity against human HepG2 cells expressing EGFR assessed as reduction in cell viability incubated for 24 hrs by MTT assay; assay type: functional, cell-based; settings: HepG2, 24 h
# L02 = assay: Cytotoxicity against human HL7702 cells expressing EGFR assessed as reduction in cell viability incubated for 24 hrs by MTT assay; assay type: functional, cell-based; settings: L02, 24 h
# OVCAR-5 = assay: Cytotoxicity against human OVCAR-5 cells assessed as inhibition of cell growth; assay type: functional, cell-based
# MDA-MB-231 [24] = assay: Induction of cell cycle arrest in human MDA-MB-231 cells assessed as accumulation of cells at G0/G1 phase measured at 1 uM incubated for 24 hrs by flow cytometric analysis relative to control; assay type: functional
# OVCAR-3 = assay: Anticancer activity against human OVCAR-3 cells incubated for 48 hrs by SRB staining assay; assay type: functional
# A-375 [25] = assay: Antiproliferative activity against human A375 cells measured after 48 hrs by MTT assay; assay type: functional, cell-based; settings: A-375, 48 h
# SK-MEL-28 = assay: Antiproliferative activity against human SK-MEL-28 cells measured after 48 hrs by MTT assay; assay type: functional, cell-based; settings: SK-MEL-28, 48 h
# MDA-MB-435 = assay: Antiproliferative activity against human MDA-MB-435 cells measured after 48 hrs by MTT assay; assay type: functional, cell-based; settings: MDA-MB-435, 48 h
# UACC-62 [26] = assay: Antiproliferative activity against human UACC-62 cells measured after 48 hrs by MTT assay; assay type: functional, cell-based; settings: UACC-62, 48 h
# HeLa [27] = assay: Antiproliferative activity against human HeLa cells measured after 48 hrs by MTT assay; assay type: functional, cell-based
# MCF7 [28] = assay: Antiproliferative activity against human MCF7 cells measured after 48 hrs by MTT assay; assay type: functional, cell-based; settings: MCF7, 48 h
# HepG2 [29] = assay: Antiproliferative activity against human HepG2 cells measured after 48 hrs by MTT assay; assay type: functional, cell-based; settings: HepG2, 48 h
# DU-145 [30] = assay: Potency index, ratio of sorafenib IC50 to test compound IC50 for cytotoxicity against human DU-145 cells; assay type: functional
# HT-29 = assay: Cytotoxicity against human HT-29 cells assessed as reduction in cell viability relative to control; assay type: functional
# DU-145 [31] = assay: Cytotoxicity against human DU-145 cells assessed as reduction in cell viability; assay type: functional, cell-based
# MIA PaCa-2 = assay: Antiproliferative activity against human MIAPaCa-2 cells measured after 24 to 48 hrs by SRB staining based assay; assay type: functional, cell-based
# [32] = Inhibition of BRAF V600E mutant in MEF cells incubated for 90 mins; assay type: cell-based, Mus musculus
# UACC-62 [33] = assay: Induction of apoptosis in human UACC-62 cells assessed as increase in caspase-3/7 release at 0.18 uM relative to control; assay type: functional
compound,measurement,setting,value
COc1ccc(-c2nc3sccn3c2-c2nc3ccc(C(F)(F)F)cc3[nH]2)cc1,Activity,A549 [1],15.1%
same,Activity,A549 [2],56.3%
same,IC50,A549 [3],1080 nM
same,Activity,A549 [4],14.94%
same,IC50,[5],1680 nM
same,inhibition,A549 [6],68.1%
same,Activity,A549 [7],43.62%
O=C(/C=C\Nc1cnc2ccccc2c1)c1c(-c2ccccc2)nc2sccn12,IC50,MDA-MB-231 [8],4600 nM
same,IC50,MCF7 [9],4600 nM
same,IC50,A549 [10],400 nM
CCCS(=O)(=O)Nc1ccc(F)c(C(=O)c2c[nH]c3ncc(-c4ccc(Cl)cc4)cc23)c1F [VEMURAFENIB],IC50,A-375 [11],5900 nM
COc1cccc2c1C(=O)c1c(O)c3c(c(O)c1C2=O)C[C@@](O)(C(=O)CO)C[C@@H]3O[C@H]1C[C@H](N)[C@H](O)[C@H](C)O1 [DOXORUBICIN],IC50,MDA-MB-231 [12],1800 nM
C/C(=N\N=C1\S/C(=N\Nc2ccc(Br)cc2)C(=O)N1N)c1sc2nc(-c3ccc(C)cc3)cn2c1C,IC50,HCT-116,1100 nM
COc1ccc(-c2sc3nc(-c4ccc(F)cc4)c(/C=C/C(=O)c4ccccn4)n3c2-c2ccc(OC)cc2)cc1,IC50,A549 [13],640 nM
same,Activity,A549 [14],69.07%
same,IC50,Tubulin,2350 nM
same,Activity,A549 [15],64.14%
O=[N+]([O-])c1cccc(-c2nc3sccn3c2-c2ccnc(NCCCNS(=O)(=O)c3cccc(F)c3)n2)c1,inhibition (INH),Renal cancer cell line,>70%
same,inhibition (INH),Prostatic carcinoma cell,>90%
same,inhibition (INH),[16],>80%
same,inhibition (INH),Leukemic tumor cell line,>90%
same,inhibition,[17],66.3%
same,inhibition (INH),Melanoma tumor cell line,100%
same,IC50,[18],80000 nM
same,inhibition (INH),Ovarian cancer cell line,>80%
same,IC50,A-375 [11],2990 nM
same,inhibition,[19],99.6%
same,inhibition (INH),CNS carcinoma cell,70%
same,inhibition (INH),Breast carcinoma cell,>80%
same,inhibition (INH),[20],>80%
same,IC50,[21],21 nM
O=C(Cc1csc2nc3ccccc3n12)Nc1ccccc1O,IC50,HeLa [22],420 nM
same,IC50,HUVEC,> 100000 nM
same,IC50,HepG2 [23],> 100000 nM
same,IC50,L02,> 100000 nM
COc1ccc(-c2nc3sccn3c2/C=C/C(=O)c2cc(OC)c(OC)c(OC)c2)cc1,IC50,OVCAR-5,1990 nM
COc1cc(C(=O)N/N=C/c2c(-c3ccc(F)cc3)nc3sccn23)cc(OC)c1OC,Activity,MDA-MB-231 [24],75.8%
C/C(=N\N=C1\S/C(=N\Nc2ccccc2)C(=O)N1N)c1sc2nc(-c3ccc(C)cc3)cn2c1C,IC50,HCT-116,1100 nM
CNC(=O)c1cc(Oc2ccc(NC(=O)Nc3ccc(Cl)c(C(F)(F)F)c3)cc2)ccn1 [SORAFENIB],GI50,OVCAR-3,2950 nM
same,IC50,A-375 [25],1950 nM
same,IC50,SK-MEL-28,1950 nM
same,IC50,A-375 [11],10300 nM
same,IC50,MDA-MB-435,1950 nM
same,IC50,UACC-62 [26],1950 nM
COc1ccc(C(=O)/C=C/c2cn3c(n2)sc2ccccc23)cc1,IC50,MDA-MB-231 [12],1200 nM
O=C1NC(=S)NC(=O)C1=Cc1c(-c2ccc(Cl)cc2)nc2scc(-c3cc4ccccc4oc3=O)n12,IC50,HeLa [27],5180 nM
same,IC50,MCF7 [28],17000 nM
same,IC50,HepG2 [29],13900 nM
COc1ccc2c(c1)sc1nc(/C=C/C(=O)c3ccc(OC)c(O)c3)cn12,IC50,MDA-MB-231 [12],1300 nM
COc1ccc(C(=O)NCCNc2nccc(-c3c(-c4ccc(F)cc4)nc4sccn34)n2)cc1,Ratio IC50,DU-145 [30],3
same,inhibition (INH),HT-29,85.38%
same,IC50,DU-145 [31],1040 nM
COC(=O)Nc1nc2cc(C(=O)c3cccs3)ccc2[nH]1 [NOCODAZOLE],IC50,MDA-MB-231 [8],2370 nM
same,IC50,MCF7 [9],2370 nM
same,IC50,MDA-MB-231 [12],1900 nM
same,Activity,A549 [14],62.9%
same,IC50,A549 [3],1810 nM
same,IC50,A549 [10],1140 nM
same,IC50,[5],1990 nM
same,inhibition,A549 [6],64.7%
O=C1Nc2ccccc2/C1=C\c1c(-c2ccc(Br)cc2)nc2scc(-c3cc4ccccc4oc3=O)n12,IC50,HeLa [27],6770 nM
same,IC50,MCF7 [28],10800 nM
COc1ccc2c(c1OCc1csc3nc(-c4cc(C)c(Br)s4)cn13)C(=O)OC2C1c2c(cc3c(c2OC)OCO3)CCN1C (stereo unspecified),IC50,MIA PaCa-2,3600 nM
O=C(NCCNc1nccc(-c2c(-c3cccc(O)c3)nc3sccn23)n1)c1ccccc1,IC50,[32],190 nM
same,IC50,A-375 [25],180 nM
same,IC50,SK-MEL-28,180 nM
same,IC50,MDA-MB-435,180 nM
same,IC50,UACC-62 [26],180 nM
same,Activity,UACC-62 [33],53.33%
O=[N+]([O-])c1cccc(-c2nc3sccn3c2-c2ccnc(NCCCNS(=O)(=O)c3ccc(F)cc3)n2)c1,inhibition (INH),Renal cancer cell line,>70%
same,inhibition (INH),Prostatic carcinoma cell,>90%
same,inhibition (INH),[16],>80%
same,inhibition (INH),Leukemic tumor cell line,>90%
same,inhibition (INH),Melanoma tumor cell line,100%
same,IC50,[18],76000 nM
same,inhibition (INH),Ovarian cancer cell line,>80%
same,IC50,A-375 [11],7960 nM
same,inhibition (INH),CNS carcinoma cell,70%
same,inhibition (INH),Breast carcinoma cell,>80%
same,inhibition (INH),[20],>80%
same,IC50,[21],35 nM
COc1ccc(-c2nc3sccn3c2/C=N/NC(=O)c2cccc(O)c2)cc1,Activity,MDA-MB-231 [24],72.4%
O=C(Cc1csc2nc3ccccc3n12)Nc1cccc2ccccc12,IC50,HeLa [22],2490 nM
same,IC50,HUVEC,> 100000 nM
same,IC50,HepG2 [23],> 100000 nM
same,IC50,L02,> 100000 nM
